Test results reported in patent US10807951B2, “mTORC1 modulators” (THE REGENTS OF THE UNIVERSITY OF CALIFORNIA, priority 2017, dated 2020).
Several values for one entry are separate records, joined by “and”; a condition that tells them apart may be missing. Equal values may be shown once. Entries after “also recorded” stand apart in the source; their conditions may differ. Read-outs that look alike come from different tables or passages of the source.

Experiments:
[1] = test system: mTOR localization to LAMP2-positive lysosomes; test: mTORC1 recruitment assay, immunofluorescence in HeLa cells; assay type: cell-based; settings: 50 μM, 1 h, amino acid stimulation
Experimental: Next, we sought to determine whether YP 1-44 had expected cellular effects in disrupting the TORC1 complex, recruitment of TORC1 to the lysosome, and TORC1 signaling. We treated Hela cells with YP 1-44 for 1 h with and without amino acid stimulation. […] This finding is consistent with the role of Lamtor as an obligate scaffold not only for mTORC1 but also for the Rag GTPases at the lysosome. […] Thus, our results establish that YP 1-44 abolishes mTORC1 signaling both in vitro and in live cells by preventing mTORC1 localization to the lysosome, and that this action occurs via disruption of the Lamtor-Rag scaffold.
HeLa cells were plated on fibronectin-coated glass coverslips in 6-well plates (35 mm diameter/well), at 300,000-500,000 cells/well. 12-16 hours later, cells were subjected to amino acid depletion for 1 h in the presence of 50 uM compounds or an equivalent volume of DMSO, restimulated with a complete amino acid mix for 10 minutes, and fixed in 4% paraformaldehyde (in PBS) for 15 min at RT. The coverslips were rinsed twice with PBS and cells were permeabilized with 0.1% (w/v) Saponin in PBS for 10 min. […]

LAMTOR5 = LAMTOR5 (Homo sapiens, UniProt O43504); test: Competitive isoTOP-ABPP with purified mTORC1, Rag GTPase and Lamtor complexes; assay type: binding
From the text: To identify the specific druggable hotspot targeted by YP 1-44 within the TORC1 complex, we performed a chemoproteomic study using isotopic tandem orthogonal proteolysis-enabled activity-based protein profiling (isoTOP-ABPP). IsoTOP-ABPP uses reactivity-based chemical probes to profile proteome-wide reactive, functional, and druggable hotspots directly in complex proteomes. When used in a competitive manner, small-molecule covalent ligands can be competed against the binding of reactivity-based probes to facilitate the identification of druggable hotspots targeted by lead covalent ligands (5-7) (FIG. 4A). Here, we pre-treated human purified mTORC1, Rag GTPase and Lamtor complexes with either vehicle or YP 1-44, and subsequently labeled this reconstituted system with a broad cysteine-reactive probe iodoacetamide-alkyne (IA-alkyne). Any accessible cysteine druggable hotspot would be labeled with the IA-alkyne probe in the vehicle-treated control, but the site bound by YP 1-44 would no longer accessible to IA-alkyne binding. Subsequently, we used copper-catalyzed azide-alkyne cycloaddition to append an isotopically light (for control) or heavy (for YP 1-44-treated) biotin-azide tag bearing a TEV protease recognition peptide onto probe-labeled proteins, upon which we combined the control and treated proteomes in a 1:1 ratio, followed by avidin-enrichment, tryptic digestion, and elution of probe-modified tryptic peptides by TEV protease. The resulting peptides were analyzed by LC-LC/MS/MS and light-to-heavy ratios of probe-modified peptides were quantified. We identified two cysteines within LAMTOR5, C148 and C23 that were labeled with ratios of 0.51 and 3.7, respectively. If YP 1-44 bound to a particular cysteine, we would expect a higher (>2) light-to-heavy ratio.
IsoTOP-ABPP analyses were performed using a modified version of our previously reported method (PMID 28352901, 28186401). We pre-treated human purified mTORC1, Rag GTPase and Lamtor complexes (5 micrograms each) with DMSO vehicle or YP 1-44 (50 μM) for 30 min at 37° C. in phosphate-buffered saline (PBS), and then labeled with IA-alkyne (100 μM) for 1 h at room temperature. They were subsequently treated with isotopically light (control) or heavy (treated) TEV-biotin (100 μM) and copper-catalyzed azide-alkyne cycloaddition (CuAAC). For analysis of cysteine reactivity in primary colorectal tumor tissue, tumors were pooled and incubated with either 100 μM IA-alkyne and isotopically heavy TEV-biotin or 10 μM IA-alkyne and isotopically light TEV-biotin followed by CuAAC. Proteins were precipitated over one hour and pelleted by centrifugation at 6500×g. Proteins were washed 3 times with cold methanol then denatured and resolubilized by heating in 1.2% SDS/PBS to 85° C. for 5 min. Insoluble components were precipitated by centrifugation at 6500×g and soluble proteome was diluted in 5 ml PBS, for a final concentration of 0.2% SDS. Labeled proteins were bound to avidin-agarose beads (170 μL resuspended beads/sample, Thermo Pierce) while rotating overnight at 4° C. Bead-linked proteins were enriched by washing three times each in PBS and water, then resuspended in 6 M urea/PBS (Sigma-Aldrich) and reduced in dithiothreitol (1 mM, Sigma-Aldrich), alkylated with iodoacetamide (18 mM, Sigma-Aldrich), then washed and resuspended in 2 M urea/PBS with 1 mM calcium chloride and trypsinized overnight with 0.5 μg/μl sequencing grade trypsin (Promega). […]

RagA and RagC = test: Immunofluorescence of Rag GTPases and LAMP2 in HEK-293A cells; assay type: cell-based; settings: 2 h
Experimental: (§1) FIGS. 6A-6D. CC 1-44 inhibits mTORC1 signaling and activates autophagy. (FIG. 6A) Visual IP experiment monitoring binding of GFP-RagB to RFP-tagged, bead-bound Lamtor complex. […] (FIG. 6B) Immunofluorescence for endogenous RagA and LAMP2 in HEK-293A cells treated with DMSO, YP 1-44 or CC 1-44 for 2 h. […] (FIG. 6C) Immunofluorescence for endogenous mTOR and LAMP2 in HEK-293A cells treated with DMSO or CC 1-44 for 2 h. […] (FIG. 6D) Immunoblotting for autophagic markers LC3b and p62 from HEK-293A cells treated with DMSO (lane 1) or CC 1-44 (lane 3) for 2 h.
Next, we investigated the mechanism of mTORC1 inhibition by CC-1-44 using visual IP and immunofluorescence. […] Indeed, when we visualized RagA and RagC localization in CC 1-44-treated cells, their localization to LAMP2-positive lysosomes was increased, not decreased as for YP 1-44 (FIG. 6B). This observation pointed to a different mechanism for mTORC1 inactivation by CC 1-44. Rather than disrupting the integrity of the LAMTOR-Rag assembly, CC 1-44 prevents its activation, causing it to strongly accumulate at the lysosome in a conformation that is unable to bind to mTORC1.

autophagy = test: Immunoblotting for autophagic markers LC3b and p62 in HEK-293A cells; assay type: cell-based
Experimental: as §1
In cells treated with CC 1-44, autophagy becomes activated within 1 h, as judged by accumulation of cleaved LC3b and increased degradation of p62 (FIG. 6D).

[2] = compound 50 μM, IA-alkyne 100 μM, average of n=4

isoTOP-ABPP light-to-heavy ratio, LAMTOR5 C23 (LAMTOR5; [2]) | isoTOP-ABPP light-to-heavy ratio, LAMTOR5 C148 (LAMTOR5; [2]) | Compound | amino acid-induced mTOR localization to LAMP2-positive lysosomes [1] | amino acid-induced mTOR localization to LAMP2-positive lysosomes ([1]; listed as YP1-44) | LAMTOR5 cysteines targeted (isoTOP-ABPP) (LAMTOR5) | RagA and RagC localization to LAMP2-positive lysosomes (RagA and RagC) | LAMTOR5 cysteines targeted (isoTOP-ABPP) (LAMTOR5; listed as CC-1-44) | autophagy (LC3b band increase, p62 band disappearance) (autophagy; HEK-293A cells, 2 h) | total autophagic flux (autophagy; HEK-293A cells, 2 h, with Bafilomycin A) | time to autophagy activation (accumulation of cleaved LC3b, increased degradation of p62) (autophagy; treated cells) [h]
> 3 and 3.7 | 0.51 | C=CC(=O)n1ccc2ccccc21 [YP 1-44] | disrupts amino acid-induced mTOR localization | mTORC1 recruitment fails | target C23 and C148 of LAMTOR5; also recorded: C23 of LAMTOR5 was the primary site; also recorded: modified C23 and C148 in LAMTOR5 | causes RagA dissociation from Lamtor; also recorded: decreased |  |  |  | 
 |  | C=CC(=O)N1CCc2c(OCc3cc(C(F)(F)F)cc(C(F)(F)F)c3)cccc21 [CC 1-44] |  |  | modified C23 and C148 in LAMTOR5 | increased RagA clustering on lysosomes | target C23 and C148 of LAMTOR5 | activation of autophagy | increased | ≤ 1
